Laboratory results from PMC12006171, “Marsupial cathelicidins: characterization, antimicrobial activity and evolution in this unique mammalian lineage” (Frontiers in Immunology, 2025).
≈ marks a conversion by molar mass, not a printed value. Like-named read-outs stand apart in the source and are kept apart here. Where a SMILES comes first, the peptide text is derived from it.

Tests used:
[1] = test system: Escherichia coli ATCC 25922; assay: microbe, parasite or virus in culture; type: cell-based; settings: ATCC 25922
How it was run: (§1)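 Broth microdilution per CLSI M07-A/M26A: DMSO-solubilized cathelicidin mature peptides at final 64-0.125μg/mL in Mueller Hinton broth (with or without 10% lysed horse blood, with or without calcium/magnesium), final inoculum 5 x 10^5 CFU/mL, 35°C for 20–24 hours. MIC = lowest concentration preventing visible growth.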

[2] = test system: Escherichia coli clinical isolate - animal; assay: microbe, parasite or virus in culture; type: cell-based; settings: clinical isolate - animal
How it was run: as §1

[3] = test system: Pseudomonas aeruginosa ATCC 27853; assay: microbe, parasite or virus in culture; type: cell-based; settings: ATCC 27853; read-out: MIC P. aeruginosa ATCC
How it was run: as §1

[4] = test system: Pseudomonas aeruginosa clinical isolate - animal; assay: microbe, parasite or virus in culture; type: cell-based; settings: clinical isolate - animal; read-out: MIC P. aeruginosa
How it was run: as §1

[5] = test system: Staphylococcus aureus ATCC 29213; assay: microbe, parasite or virus in culture; type: cell-based; settings: ATCC 29213
How it was run: as §1

[6] = test system: Staphylococcus aureus clinical isolate - animal; assay: microbe, parasite or virus in culture; type: cell-based; settings: clinical isolate - animal
How it was run: as §1

[7] = test system: Streptococcus agalactiae ATCC 12386; assay: microbe, parasite or virus in culture; type: cell-based; settings: ATCC 12386; read-out: MIC S. agalactiae ATCC
How it was run: (§2)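 Broth microdilution per CLSI M07-A/M26A; cathelicidin peptides tested at final 64-0.125μg/mL, inoculum 5 x 10^5 CFU/mL, 35°C for 20–24 hours. Bacteria in MHB (±10% lysed horse blood, ±Ca/Mg), yeasts in RPMI-1640 MOPS. MIC = lowest concentration preventing visible growth.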

[8] = test system: Streptococcus agalactiae Clinical isolate - animal; assay: microbe, parasite or virus in culture; type: cell-based; settings: clinical isolate - animal
How it was run: as §2

[9] = test system: Streptococcus pneumoniae ATCC 49619; assay: microbe, parasite or virus in culture; type: cell-based; settings: ATCC 49619; read-out: MIC S. pneumoniae ATCC
How it was run: as §2

[10] = test system: Staphylococcus aureus clinical isolate – animal, methicillin-resistant (MRSA); type: cell-based; settings: clinical isolate – animal, methicillin-resistant
How it was run: as §2

[11] = test system: Staphylococcus aureus clinical isolate – animal, penicillin-resistant (PRSA); type: cell-based; settings: clinical isolate – animal, penicillin-resistant (PRSA)
How it was run: as §2

[12] = test system: S. aureus ATCC 29213; assay: Killing kinetics (time kill assay); type: cell-based, Staphylococcus aureus; settings: MHB, 35°C, sampled 1-24 hours, n = 2
Experimental: The killing kinetics assay was conducted using mid-logarithmic phase cultures of E. coli ATCC 25922 and S. aureus ATCC 29213 in MHB. Cultures were adjusted to a 0.5 McFarland standard, diluted in MHB, and then 100µL was added to each culture tube containing 10mL pre-warmed MHB to give a final inoculum concentration of 5 x 10^5 CFU/mL. A sterility control of 100uL MHB, growth control (no cathelicidin), and vehicle control (DMSO) were also included. Furthermore, 10uL was immediately removed from the growth control tube, diluted 1/1000 in saline and 100µL plated onto MHA in duplicate to confirm inoculum density. To establish colony counts from 0 hours of cathelicidin treatment, 200µL was removed from each culture tube and serially diluted ten-fold in saline from 10^0 to […] in a total volume of 200µL. Then, 10µL of each dilution was spotted onto MHA in duplicate, which were incubated at 35°C for 24 hours.
All culture tubes were then incubated at 35°C static. At 1, 2, 4, 6, 8, 10, 12, and 24 hours post-cathelicidin treatment, 200µL was removed from each culture tube for dilution and plated on MHA as described above. […] Counts of duplicates were averaged, and the log10 CFU/mL graphed against time. This was used as input for one-way ANOVA (p < 0.05) followed by Dunnett’s post hoc test.

[13] = test system: six bacteria (S. aureus, E. coli, P. aeruginosa; ATCC and clinical isolate); type: cell-based; settings: synthesized mature peptide
How it was run: as §1

[14] = test system: three fungi (Candida krusei, Candida parapsilosis, Candida albicans); assay: Antifungal screening, summary over the panel of fungi (broth microdilution); type: cell-based; settings: synthesized mature peptide
Experimental: Antimicrobial testing of 78 cathelicidin MPs was performed in two phases as outlined in Figure 1 . In phase I, 40 peptides (27 extant and 13 ancestral) were selected for testing based on rank (outlined above) and similarity to published marsupial cathelicidins with known antimicrobial activity ([33], [41]–[43]). These peptides were tested against nine bacteria (Staphylococcus aureus ATCC 29213 and clinical isolate, Escherichia coli ATCC 25922 and clinical isolate, Pseudomonas aeruginosa ATCC 27853 and clinical isolate, Streptococcus agalactiae ATCC 12386 and clinical isolate, Streptococcus pneumoniae ATCC 49619) and three fungi (Candida krusei ATCC 6258, Candida parapsilosis ATCC 22019, and Candida albicans clinical isolate). Details regarding these strains are available in Supplementary Table 4 . The antimicrobial activity of cathelicidins was determined as the minimum inhibitory concentration (MIC), which was the lowest concentration of cathelicidin that prevented visible bacterial or fungal growth, relative to the negative control. […] Minimum bactericidal concentration (MBC) and/or minimum fungicidal concentration (MFC) was conducted to determine microbicidal versus static action. Activity against S. aureus ATCC, E. coli ATCC, and Pseudomonas aeruginosa ATCC 27853 was examined in the presence of divalent cations to determine the impact of inhibitors.
Antimicrobial activity was determined using a broth microdilution susceptibility assay in 96 well polypropylene plates according to Clinical Laboratory Standards Institute guidelines M07-A and M26A as described previously ([33], [42], [43]). The bacterial and fungal isolates from humans and animals used in this study are outlined in Supplementary Table 4 . Only yeasts were included in the panel of fungi as they have been used in the susceptibility testing of eutherian ([3], [81]–[83]) and other marsupial cathelicidins previously ([33], [42], [43]). Cathelicidin mature peptides were solubilized in DMSO and serially diluted in duplicate from 128-0.25μg/mL in a final volume of 100µL. For bacteria, cathelicidins were diluted in Mueller Hinton Broth (MHB) with or without 10% lysed horse blood, and with (MH II B) or without (MHB) calcium and magnesium cations. For fungi, cathelicidins were diluted in Roswell Park Memorial Institute medium (RPMI)-1640 MOPS. Ampicillin or tetracycline were included as a positive control for Gram-positive and -negative bacteria respectively, while amphotericin B was used for fungi. A media-only negative control and growth control (no cathelicidin) were also included on each plate. Bacteria were sub-cultured on Muller Hinton agar (MHA) or sheep blood agar (BA), and fungi on Sabouraud dextrose agar (SAB), 20–24 hours prior to the test. Colonies were suspended in saline, the concentration adjusted to a 0.5 McFarland standard, and then diluted in media to a concentration of 1.0 x 10^6 cells/mL. Then, 100μL was added to each well of the cathelicidin dilution plate, giving a final inoculum density of 5 x 10^5 CFU/mL and cathelicidin concentration of 64-0.125μg/mL. Colony counts were performed on MHA/BA/SAB to confirm inoculum density. All plates were incubated at 35°C for 20–24 hours, depending on the strain.
Colonies were counted and compared to the colony count of the starting inoculum.

[15] = antimicrobial screening Phase I, Y/N summary over bacteria tested, broth microdilution
[16] = antimicrobial screening Phase I, Y/N summary over fungi tested, broth microdilution

Molecule: CC[C@H](C)[C@H](NC(=O)[C@H](CCCCN)NC(=O)[C@H](CC(N)=O)NC(=O)[C@H](CC(C)C)NC(=O)CNC(=O)[C@H](CCC(N)=O)NC(=O)CNC(=O)[C@H](CC(C)C)NC(=O)[C@H](CCCCN)NC(=O)[C@H](CCSC)NC(=O)[C@H](Cc1c[nH]c2ccccc12)NC(=O)CNC(=O)[C@H](CCCCN)NC(=O)[C@H](CCCCN)NC(=O)[C@H](CCC(=O)O)NC(=O)[C@H](Cc1c[nH]cn1)NC(=O)[C@H](CCCNC(=N)N)NC(=O)[C@H](CCCCN)NC(=O)[C@@H](NC(=O)[C@@H](N)CCCCN)[C@@H](C)CC)C(=O)N[C@@H](CC(C)C)C(=O)N[C@@H](CCCCN)C(=O)N[C@@H](Cc1c[nH]cn1)C(=O)N[C@@H](Cc1ccccc1)C(=O)N[C@@H](CC(N)=O)C(=O)N[C@H](C(=O)N[C@@H](CC(=O)O)C(=O)N[C@@H](Cc1ccccc1)C(=O)N[C@@H](CS)C(=O)N[C@@H](CC(C)C)C(=O)N[C@@H](CC(N)=O)C(=O)N[C@@H](CS)C(=O)O)[C@@H](C)CC [LalaCath3] (H-KIKRHEKKGWMKLGQGLNKILKHFNIDFCLNC-OH; N-terminus and C-terminus assumed)
- MBC E. coli ATCC [1]: 8.3 (8.3)^8.3 µM
- MIC E. coli ATCC [1]: 8.3 (8.3)^8.3 µM
- MIC in the presence of cations E. coli ATCC [1]: 8.3 (8.3)^8.3 µM
- MBC E. coli [2]: 16.6 (16.6)^>16.6 µM
- MIC E. coli [2]: 16.6 (16.6)^>16.6 µM
- MIC in the presence of cations E. coli [2]: 16.6 (16.6)^>16.6 µM
- MIC [3]: >16.6 µM
- MIC [4]: >16.6 µM
- MBC S. aureus ATCC [5]: 4.1 µM (≈ 15.8 µg/mL)
- MIC ([5]; read-out: MIC S. aureus ATCC): 2 µM (≈ 7.68 µg/mL)
- MIC ([5]; read-out: MIC in the presence of cations S. aureus ATCC): 2 µM
- MBC S. aureus [6]: 4.1 µM (≈ 15.8 µg/mL)
- MIC ([6]; read-out: MIC S. aureus): 2 µM (≈ 7.68 µg/mL)
- MIC ([6]; read-out: MIC in the presence of cations S. aureus): 2 µM
- MIC [7]: >16.6 µM
- MBC S. agalactiae [8]: 8.3 µM (≈ 31.9 µg/mL)
- MIC S. agalactiae [8]: 8.3 µM (≈ 31.9 µg/mL)
- MIC [9]: >16.6 µM
- MBC MRSA [10]: 4.1 µM (≈ 15.8 µg/mL)
- MIC MRSA [10]: 2 µM (≈ 7.68 µg/mL)
- MBC PRSA [11]: 2 µM (≈ 7.68 µg/mL)
- MIC PRSA [11]: 1 µM (≈ 3.84 µg/mL)
- Number of hours to cause a significant reduction in log CFU/mL of S. aureus ATCC (p < 0.05) ([12]; 0.5x MIC): 4 hours
- Number of hours to cause a significant reduction in log CFU/mL of S. aureus ATCC (p < 0.05) ([12]; 2x MIC): 2 hours
- Number of hours to cause a significant reduction in log CFU/mL of S. aureus ATCC (p < 0.05) ([12]; MIC): 4 hours

Molecule: PGKRRGKLIKKGGKGVKRLLPKNGIIILPPG [MAP5, marsupial ancestral peptide, predicted by ANCESCON and GASP, synthesized]
- Antibacterial (MIC <64ug/mL) [13, 15]: N (Antibacterial (MIC <64ug/mL))
- Antifungal (MIC <64ug/mL) [14, 16]: N (Antifungal (MIC <64ug/mL))

Molecule: PKRKKGSKKRRFRPGGYTLIALGKPRVQKAPYMEAL [MAP3, marsupial ancestral peptide, likely linear, rich in arginine (32.2%) and proline (25.8%)]
- Antibacterial (MIC <64ug/mL) [13, 15]: N (Antibacterial (MIC <64ug/mL))
- Antifungal (MIC <64ug/mL) [14, 16]: N (Antifungal (MIC <64ug/mL))

Molecule: RQIYDQAKYDILTGILRNF [BepeCath8]
- Antibacterial (MIC <64ug/mL) [13, 15]: N (Antibacterial (MIC <64ug/mL))
- Antifungal (MIC <64ug/mL) [14, 16]: N (Antifungal (MIC <64ug/mL))

Molecule: RQRRLPFLGDPRRFPRPRGRPQPDPRQGRPN [MAP4, marsupial ancestral peptide, predicted by ANCESCON and GASP, synthesized]
- Antibacterial (MIC <64ug/mL) [13, 15]: N (Antibacterial (MIC <64ug/mL))
- Antifungal (MIC <64ug/mL) [14, 16]: N (Antifungal (MIC <64ug/mL))

Molecule: RSKRSSSLEEIDIDSLPPKVKEIYYRGIDDAIGGILRNF [TrvuCath4]
- Antibacterial (MIC <64ug/mL) ([13]; broth microdilution screening, phase I or II, Y/N summary over the bacteria tested): N (Antibacterial (MIC <64ug/mL))
- Antifungal (MIC <64ug/mL) ([14]; broth microdilution screening, phase I, Y/N summary over the fungi tested): N (Antifungal (MIC <64ug/mL))
